These results are taken from ChEMBL document CHEMBL1649445, “Genital tract, cord blood, and amniotic fluid exposures of seven antiretroviral drugs during and after pregnancy in human immunodeficiency virus type 1-infected women” (Antimicrob Agents Chemother, 2009).

What all share (type): ADME, organism-based
Data set [1] can be described thus: Drug level in HIV-infected pregnant woman maternal blood plasma at 1250 mg, po BID by HPLC/UV analysis. To be noted: human, in vivo.
A short description of data set [2]: Drug level in HIV-infected pregnant woman cord blood plasma at 1250 mg, po BID by HPLC/UV analysis. To be noted: human, in vivo.
Data set [3] is described as follows: Drug level in HIV-infected pregnant woman amniotic fluid at 1250 mg, po BID by HPLC/UV analysis. To be noted: human, in vivo.
The nature of data set [4]: Ratio of drug level in HIV-infected pregnant woman cord blood plasma to maternal blood plasma at 1250 mg, po BID by HPLC/UV analysis. To be noted: female, human.
A short description of data set [5]: Ratio of drug level in HIV-infected pregnant woman amniotic fluid to maternal blood plasma at 1250 mg, po BID by HPLC/UV analysis. As to conditions: female, human.
A short description of data set [6]: Drug level in HIV-infected pregnant woman maternal blood plasma at 150 mg, po BID by LC/MS/MS analysis. As to conditions: human, in vivo.
Data set [7] is described as follows: Drug level in HIV-infected pregnant woman cord blood plasma at 150 mg, po BID by LC/MS/MS analysis. To be noted: human, in vivo.
A short description of data set [8]: Drug level in HIV-infected pregnant woman amniotic fluid at 150 mg, po BID by LC/MS/MS analysis. To be noted: human, in vivo.
The nature of data set [9]: Drug level in HIV-infected pregnant woman maternal blood plasma at 400 mg, po BID by HPLC/UV analysis. To be noted: human, in vivo.
Data set [10] can be described thus: Drug level in HIV-infected pregnant woman cord blood plasma at 400 mg, po BID by HPLC/UV analysis. As to conditions: human, in vivo.
Data set [11] in a line: Drug level in HIV-infected pregnant woman amniotic fluid at 400 mg, po BID by HPLC/UV analysis. As to conditions: human, in vivo.
Data set [12] in a line: Drug level in HIV-infected pregnant woman maternal blood plasma at 200 mg, po BID by HPLC/UV analysis. As to conditions: human, in vivo.
Data set [13] in a line: Drug level in HIV-infected pregnant woman cord blood plasma at 200 mg, po BID by HPLC/UV analysis. To be noted: human, in vivo.
A short description of data set [14]: Drug level in HIV-infected pregnant woman amniotic fluid at 200 mg, po BID by HPLC/UV analysis. To be noted: human, in vivo.
Data set [15] can be described thus: Ratio of drug level in HIV-infected pregnant woman cord blood plasma to maternal blood plasma at 200 mg, po BID by HPLC/UV analysis. To be noted: female, human.
Data set [16] is described as follows: Ratio of drug level in HIV-infected pregnant woman amniotic fluid to maternal blood plasma at 200 mg, po BID by HPLC/UV analysis. As to conditions: female, human.
Data set [17] is described as follows: Drug level in HIV-infected pregnant woman maternal blood plasma at 100 mg, po BID by HPLC/UV analysis. As to conditions: human, in vivo.
A short description of data set [18]: Drug level in HIV-infected pregnant woman cord blood plasma at 100 mg, po BID by HPLC/UV analysis. As to conditions: human, in vivo.
Data set [19] in a line: Drug level in HIV-infected pregnant woman amniotic fluid at 100 mg, po BID by HPLC/UV analysis. As to conditions: human, in vivo.
Data set [20] in a line: Ratio of drug level in HIV-infected pregnant woman cord blood plasma to maternal blood plasma at 100 mg, po BID by HPLC/UV analysis. As to conditions: female, human.
A short description of data set [21]: Ratio of drug level in HIV-infected pregnant woman amniotic fluid to maternal blood plasma at 100 mg, po BID by HPLC/UV analysis. As to conditions: female, human.
Data set [22] is described as follows: Drug level in HIV-infected pregnant woman maternal blood plasma at 300 mg, po QD by LC/MS/MS analysis. As to conditions: human, in vivo.
Data set [23] is described as follows: Drug level in HIV-infected pregnant woman cord blood plasma at 300 mg, po QD by LC/MS/MS analysis. As to conditions: human, in vivo.
Data set [24] can be described thus: Drug level in HIV-infected pregnant woman amniotic fluid at 300 mg, po QD by LC/MS/MS analysis. As to conditions: human, in vivo.
A short description of data set [25]: Ratio of drug level in HIV-infected pregnant woman cord blood plasma to maternal blood plasma at 300 mg, po QD by LC/MS/MS analysis. As to conditions: female, human.
Data set [26] is described as follows: Ratio of drug level in HIV-infected pregnant woman amniotic fluid to maternal blood plasma at 300 mg, po QD by LC/MS/MS analysis. To be noted: female, human.
Data set [27] is described as follows: Drug level in HIV-infected pregnant woman maternal blood plasma at 300 mg, po BID by LC/MS/MS analysis. To be noted: human, in vivo.
The nature of data set [28]: Drug level in HIV-infected pregnant woman cord blood plasma at 300 mg, po BID by LC/MS/MS analysis. As to conditions: human, in vivo.
The nature of data set [29]: Drug level in HIV-infected pregnant woman amniotic fluid at 300 mg, po BID by LC/MS/MS analysis. To be noted: human, in vivo.

Molecules are shown by their SMILES.

In general, Kp refers to tissue or fluid exposure divided by exposure in the circulation. For `Cc1c(O)cccc1C(=O)N[C@@H](CSc1ccccc1)[C@H](O)CN1C[C@H]2CCCC[C@H]2C[C@H]1C(=O)NC(C)(C)C`, the values for the Drug uptake in data set [1], in data set [2] and in data set [3] were 65 ng/mL, 25 ng/mL and 12 ng/mL, respectively. The Kp in data set [4] stood at 0.49; in data set [5] it was 1.

For the molecule `Nc1ccn([C@@H]2CS[C@H](CO)O2)c(=O)n1` [LAMIVUDINE], the Drug uptake in data set [6] came out at 271 ng/mL; in [7], 216 ng/mL; in data set [8] it was 931 ng/mL.

On to `Cc1cccc(C)c1OCC(=O)N[C@@H](Cc1ccccc1)[C@@H](O)C[C@H](Cc1ccccc1)NC(=O)[C@H](C(C)C)N1CCCNC1=O` [LOPINAVIR], for which the values for the Drug uptake in [9], in [10] and in [11] were 3451 ng/mL, 80 ng/mL and 60 ng/mL, respectively.

Consider `Cc1ccnc2c1NC(=O)c1cccnc1N2C1CC1` [NEVIRAPINE], for which the Drug uptake in data set [12] came out at 2595 ng/mL; in data set [13] it was 1538 ng/mL; in [14], 1385 ng/mL. For the same molecule, the Kp was 0.59 in data set [15] and 0.53 in [16].

For the molecule `CC(C)c1nc(CN(C)C(=O)N[C@H](C(=O)N[C@@H](Cc2ccccc2)C[C@H](O)[C@H](Cc2ccccc2)NC(=O)OCc2cncs2)C(C)C)cs1` [RITONAVIR], the Drug uptake amounted to 256 ng/mL in data set [17], 20 ng/mL in [18] and 12 ng/mL in data set [19]. Also, the Kp stood at 0.55 in data set [20] and 0.02 in [21].

Consider `C[C@H](Cn1cnc2c(N)ncnc21)OCP(=O)(O)O` [TENOFOVIR ANHYDROUS], for which the Drug uptake is 5 ng/mL in data set [22], 30 ng/mL in data set [23] and 791 ng/mL in [24]. In addition, the Kp was 6 in [25] and 158 in data set [26].

As for `Cc1cn([C@H]2C[C@H](N=[N+]=[N-])[C@@H](CO)O2)c(=O)[nH]c1=O` [ZIDOVUDINE], the Drug uptake in [27] is 557 ng/mL; in [28], 605 ng/mL; in data set [29], 2249 ng/mL.
